Test results as given in PMC8348310, “Antioxidants Isolated from Elaeagnus umbellata (Thunb.) Protect against Bacterial Infections and Diabetes in Streptozotocin-Induced Diabetic Rat Model” (Molecules, 2021).
In brackets after ≈: the same amount, converted by molar mass. Several values for one entry are separate records, joined by “and”; a condition that tells them apart may be missing. Equal values may be shown once.

Key:
[1] = DPPH free radical scavenging assay; assay type: biochemical; details: 125 µg/mL
Salmonella typhi [2] = experiment: Broth dilution MIC determination; assay type: cell-based; details: Salmonella enterica, 24 h, read-out: Minimum Inhibitory Concentrations
Proteus mirabilis [3] = experiment: Agar well diffusion, zone of inhibition; assay type: cell-based; details: 37 °C, 24 h
Protocol: (§1) Antibacterial potential of isolated compound was investigated against both Gram-positive and Gram-negative bacterial strains; Escherichia coli, Bacillus cereus, Salmonella typhi, Klebsiella pneumonia, Pseudomonas aeruginosa and Proteus mirabilis. Bacterial strains were provided by the Department of Pharmacy, University of Malakand, Khyber Pakhtunkhwa, Pakistan, and were kept at 4 °C in agar slants in freeze-dried condition until further use.
(§2) Both Gram-positive and Gram-negative bacterial strains Escherichia coli, Bacillus cereus, Salmonella typhi, Klebsiella pneumonia, Pseudomonas aeruginosa and Proteus mirabilis organism viable count per mL in the stock suspension was determined using surface viable counting technique. About 10^8–10^9 colony-forming units (CFU) per mL were used as inoculum in subsequent experiments. A fresh stock suspension was used each time.
(§3) The antibacterial activity of the isolated compounds (morin, phloroglucinol, and 1-hexyl benzene) was determined using agar well diffusion method. Muller–Hinton agar media was prepared and autoclaved at 15 lbs pressure for 20 min and cooled to 45 °C. The standard bacterial stock suspension 10^8–10^9 CFU/mL were spread on Muller–Hinton agar plates and five wells (3 mm in diameter; four on side and one in center) were punched in plates using a sterile cork borer. The entire wells were filled with 100 µL of the isolated compounds (stock solution: 1 mg/mL) using microtiter-pipette and allowed to diffuse at room temperature for 2 h. The plates were incubated at 37 °C for 24 h. In the center hole, Imipenem was added which served as positive control. Simultaneous, addition of an equal concentration of DMSO solvent instead of isolated compounds was used as blank. After incubation, the zones of inhibition were measured in millimeters (mm) and mean values were calculated. The experiments were performed in triplicates.

Pseudomonas aeruginosa [4] = experiment: Agar well diffusion, zone of inhibition; assay type: cell-based; details: 37 °C, 24 h
Protocol: as §1, §2, §3

Escherichia coli [5] = experiment: Agar well diffusion, zone of inhibition; assay type: cell-based; details: 37 °C, 24 h
Protocol: as §1, §2, §3

Bacillus cereus [6] = experiment: Agar well diffusion, zone of inhibition; assay type: cell-based; details: 37 °C, 24 h
Protocol: as §1, §2, §3

Klebsiella pneumonia [7] = experiment: Agar well diffusion, zone of inhibition; assay type: cell-based; details: 37 °C, 24 h
Protocol: as §1, §2, §3

Proteus mirabilis [8] = experiment: Broth dilution MIC determination; assay type: cell-based; details: 37 °C, 24 h, read-out: Minimum Inhibitory Concentrations
Protocol: as §1, §2
(§4) Minimum inhibitory concentrations (MICs) of morin, phloroglucinol, and 1-hexyl benzene were determined using broth dilution method, following the Clinical and Laboratory Standards Institute (CLSI) guidelines. Stock solutions of morin, phloroglucinol, and 1-hexyl benzene were prepared in dimethylsulphoxide (DMSO). The serial dilutions from the stock solution were made ranging from 500 to 3.90 μg/mL using Mueller–Hinton broth. Sterile centrifuge tubes were arranged in sets of rows for each bacterial inoculum to cover the different concentration of isolated compounds in triplicate. The standard bacterial stock suspension 10^8–10^9 CFU/mL, in 100 μL were inoculated into each tube. A sterility control tube and a growth control tube were also incubated (for each strain). The tubes were incubated at 37 °C for 24 h. After incubation, 40 μL of a 0.4 mg/mL solution of para iodonitrotetrazolium (INT) chloride was added to each tube as an indicator of microbial growth. […] The evaluation for the inhibition of microbial growth was based on the color change of INT to pink, while no color change indicates the absence of growth. The MIC is the lowest concentration of the compounds at which there is no visible growth in the tubes. The concentration that inhibited bacterial growth completely (the first clear tube) was taken as the MIC value. Experiments were performed in triplicate and mean values are presented.
(§5) In order to, determine the sensitivity of the bacterial strains, positive control experiments were conducted, taking ampicillin at a starting concentration of 0.10 mg/mL in sterile water while the final concentrations for these experiments ranged from 25.00 to 0.19 μg/mL. A negative control experiment was conducted using only DMSO.

Pseudomonas aeruginosa [9] = experiment: Broth dilution MIC determination; assay type: cell-based; details: 37 °C, 24 h, read-out: Minimum Inhibitory Concentrations
Protocol: as §1, §2, §4, §5

Escherichia coli [10] = experiment: Broth dilution MIC determination; assay type: cell-based; details: 37 °C, 24 h, read-out: Minimum Inhibitory Concentrations
Protocol: as §1, §2, §4, §5

Bacillus cereus [11] = experiment: Broth dilution MIC determination; assay type: cell-based; details: 37 °C, 24 h, read-out: Minimum Inhibitory Concentrations
Protocol: as §1, §2, §4, §5

Klebsiella pneumonia [12] = experiment: Broth dilution MIC determination; assay type: cell-based; details: Klebsiella pneumoniae, 37 °C, 24 h, read-out: Minimum Inhibitory Concentrations
Protocol: as §1, §2, §4, §5

Salmonella typhi [13] = experiment: Agar well diffusion, zone of inhibition; assay type: cell-based; details: 24 h
[14] = ABTS free radical scavenging assay; assay type: biochemical
Protocol: ABTS (2,2′-azinobis-3-ethylbenzothiazoline-6-sulfonic acid) free radicals inhibition potential were determined according to the reported assay. ABTS solution was prepared in methanol (100 mL). In total, 300 µL of compound (morin, phloroglucinol, and 1-hexyl benzene) was mixed thoroughly with 3.0 mL ABTS solution and incubated for six minutes. Finally, the absorbance was measured through UV spectrophotometer using ascorbic acid as positive control. Percent ABTS free radicals scavenging potential was calculated using the equation No. 1.
(§6) All the in vitro and in vivo experiments were analyzed in three replicates and determined as mean ± SEM. Student’s t-test and one way ANOVA followed by Dunnett’s post hoc multiple comparison test was used. p ≤ 0.05 were considered as significant. Linear regression analysis was used to calculate the IC50 value for % DPPH, ABTS, α-amylase, and α-glucosidase inhibition against the different concentrations of the test samples by means of Excel program 2007.

[15] = DPPH free radical scavenging assay; assay type: biochemical
Protocol: According to the Brand-Williams assay DPPH (2, 2-diphenyl-1-picrylhydrazyl) free radical scavenging activity of morin was determined. DPPH and compounds stock solutions (1 mg/mL) were prepared in 100 mL methanol with serial dilutions of […], 62.5, 250, 500, and 1000 µg/mL. After that, 0.1 mL morin was mixed with 3.0 mL DPPH solution and incubated at 23 °C for 30 min. Standard ascorbic acid solution was also prepared in the same way using as a positive control. Finally, absorbance was measured at 517 nm via UV spectrophotometer. Results were taken in a set of three experiments and represented as mean ± SEM. Percent free radicals scavenging potential was calculated according to the following Equation (1): (1) % Free radicals Scavenging potential = Blank sample absorbance−sample absorbance/Blank sample absorbance×100
as §6

[16] = linear regression of % scavenging vs concentration

O=c1c(O)c(-c2ccc(O)cc2O)oc2cc(O)cc(O)c12 [Morin, 2-(2,4-Dihydroxyphenyl)-3,5,7-trihydroxychromen-4-one]
% DPPH Scavenging Mean ± SEM [1]: 68 ± 1.2 %
MIC (Salmonella typhi [2]): 28 ± 1 µg/mL (≈ 92.6 µM)
Zone of Inhibition (Proteus mirabilis [3]; 100 µg/mL): 11 ± 1.5 mm
zone of inhibition at 100 µg/mL (Proteus mirabilis [3]): 11 ± 1.5 mm
Zone of Inhibition (Pseudomonas aeruginosa [4]; 100 µg/mL): 14 ± 0.5 mm
zone of inhibition at 100 µg/mL (Pseudomonas aeruginosa [4]): 14 ± 0.5 mm
Zone of Inhibition (Escherichia coli [5]; 100 µg/mL): 19 ± 1.1 mm
zone of inhibition at 100 µg/mL (Escherichia coli [5]): 19 ± 1.1 mm
Zone of Inhibition (Bacillus cereus [6]; 100 µg/mL): 17 ± 0.1 mm
zone of inhibition at 100 µg/mL (Bacillus cereus [6]): 17 ± 0.1 mm
Zone of Inhibition (Klebsiella pneumonia [7]; 100 µg/mL): 15 ± 0.5 mm
zone of inhibition at 100 µg/mL (Klebsiella pneumonia [7]; Klebsiella pneumoniae): 15 ± 0.5 mm
MIC (Proteus mirabilis [8]): 55 ± 1.4 µg/mL (≈ 182 µM)
MIC (Pseudomonas aeruginosa [9]): 44 ± 1.5 µg/mL (≈ 146 µM)
MIC (Escherichia coli [10]): 25 ± 1.1 µg/mL (≈ 82.7 µM)
MIC (Bacillus cereus [11]): 21 ± 1.2 µg/mL (≈ 69.5 µM)
MIC (Klebsiella pneumonia [12]): 30 ± 1.4 µg/mL (≈ 99.3 µM)
zone of inhibition at 100 µg/mL (Salmonella typhi [13]; Salmonella enterica, TYPHI): 16 ± 1.2 mm
Zone of Inhibition (Salmonella typhi [13]; Salmonella typhi, 100 µg/mL, 37 °C): 16 ± 1.2 mm
% ABTS Scavenging Mean ± SEM ([14]; 31.05 µg/mL): 45 ± 0.5 %
% ABTS Scavenging Mean ± SEM ([14]; 62.5 µg/mL): 57 ± 1.4 %
% ABTS Scavenging Mean ± SEM ([14]; 125 µg/mL): 64 ± 1.2 %
% ABTS Scavenging Mean ± SEM ([14]; 250 µg/mL): 75 ± 0.5 ^ns %
% ABTS Scavenging Mean ± SEM ([14]; 500 µg/mL): 80 ± 1.0 ^ns %
% ABTS Scavenging Mean ± SEM ([14]; 1000 µg/mL): 88 ± 1.0% and 88 ± 1.0 ^ns %
ABTS IC50 [14, 16]: 40 µg/mL
% DPPH Scavenging Mean ± SEM ([15]; 31.05 µg/mL): 54 ± 0.5 %
% DPPH Scavenging Mean ± SEM ([15]; 62.5 µg/mL): 59 ± 1.3 %
% DPPH Scavenging Mean ± SEM ([15]; 250 µg/mL): 76 ± 1.0 %
% DPPH Scavenging Mean ± SEM ([15]; 500 µg/mL): 83 ± 0.5 ^ns %
% DPPH Scavenging Mean ± SEM ([15]; 1000 µg/mL): 88± 1.1% and 88 ± 1.1 ^ns %
DPPH IC50 [15, 16]: 37 µg/mL
